Measurements: patent publication US8703768B2, “Nitrogen containing heteroaryl compounds” (Hoffmann-La Roche Inc., priority 2010, dated 2014)

What follows are molecules tested against human PDE10A (Homo sapiens (Human), UniProt Q9Y233) (assay: human PDE10A full length Scintillation Proximity Assay (SPA)). Details: 50 nM cGMP and 50 nM [3H]-cGMP, 20 minutes at room temperature; read-out: PDE10A inhibition IC50.
Type: biochemical
Summary of the method: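 Full-length enzyme incubated with compounds; reaction started with cGMP plus [^3H]-cGMP substrate and run 20 min at room temperature. Stopped with yttrium silicate SPA beads in 18 mM zinc sulphate, 1 h shaking, then scintillation counting; background from enzyme-free wells.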

Chain of human PDE10A (Q9Y233 other isoform, or with tags, fused parts or gaps): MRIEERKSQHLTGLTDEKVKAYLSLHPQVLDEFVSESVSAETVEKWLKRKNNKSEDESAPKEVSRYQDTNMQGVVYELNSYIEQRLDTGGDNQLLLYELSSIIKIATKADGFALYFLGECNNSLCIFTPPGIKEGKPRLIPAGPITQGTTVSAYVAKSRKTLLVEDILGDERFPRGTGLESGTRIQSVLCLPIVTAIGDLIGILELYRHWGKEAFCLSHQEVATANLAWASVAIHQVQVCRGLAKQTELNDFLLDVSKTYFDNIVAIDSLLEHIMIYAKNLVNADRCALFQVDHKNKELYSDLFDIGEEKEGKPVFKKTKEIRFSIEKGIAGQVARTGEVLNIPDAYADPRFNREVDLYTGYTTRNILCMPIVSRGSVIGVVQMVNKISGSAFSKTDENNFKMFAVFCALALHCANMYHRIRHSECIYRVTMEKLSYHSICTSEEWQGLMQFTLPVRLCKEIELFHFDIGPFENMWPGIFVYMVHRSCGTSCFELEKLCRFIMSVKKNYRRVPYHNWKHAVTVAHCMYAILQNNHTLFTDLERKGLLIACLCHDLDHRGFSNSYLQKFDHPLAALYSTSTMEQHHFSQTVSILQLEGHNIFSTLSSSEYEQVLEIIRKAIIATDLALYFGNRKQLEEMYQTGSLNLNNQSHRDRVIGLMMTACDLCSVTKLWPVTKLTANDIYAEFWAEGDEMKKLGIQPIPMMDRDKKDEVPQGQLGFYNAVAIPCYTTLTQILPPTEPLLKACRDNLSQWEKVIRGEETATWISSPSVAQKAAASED

SMILES | IC50
CC(C)(O)CNC(=O)c1nc(C2CC2)ccc1NC(=O)c1nc(C2CC2)cnc1Nc1cncnc1 [Example 159, 6-Cyclopropyl-3-(pyrimidin-5-ylamino)-pyrazine-2-carboxylic acid [6-cyclopropyl-2-(2-hydroxy-2-methyl-propylcarbamoyl)-pyridin-3-yl]-amide] | 0.4 nM
CNC(=O)c1c(NC(=O)c2nc(C3CCOC3)cnc2Nc2cncnc2)cnn1C (stereo not shown) [Example 160, 3-(Pyrimidin-5-ylamino)-6-(tetrahydro-furan-3-yl)-pyrazine-2-carboxylic acid (1-methyl-5-methylcarbamoyl-1H-pyrazol-4-yl)-amide] | 2.9 nM
Cn1ncc(NC(=O)c2nc(C3CC3)c(C3CCCO3)nc2Nc2cncnc2)c1C(=O)NCCF (stereo not shown) [Example 162, 6-Cyclopropyl-3-(pyrimidin-5-ylamino)-5-(tetrahydro-furan-2-yl)-pyrazine-2-carboxylic acid [5-(2-fluoro-ethylcarbamoyl)-1-methyl-1H-pyrazol-4-yl]-amide] | 124 nM
O=C(NC1CC1)c1nocc1NC(=O)c1nc(C2CC2)cnc1Nc1cncnc1 [Example 163, 6-Cyclopropyl-3-(pyrimidin-5-ylamino)-pyrazine-2-carboxylic acid (3-cyclopropylcarbamoyl-isoxazol-4-yl)-amide] | 6.2 nM
CC(NC(=O)c1c(NC(=O)c2nc(C3CC3)cnc2Nc2cncnc2)cnn1C)C(F)(F)F (stereo not shown) [Example 164, 6-Cyclopropyl-3-(pyrimidin-5-ylamino)-pyrazine-2-carboxylic acid [1-methyl-5-(2,2,2-trifluoro-1-methyl-ethylcarbamoyl)-1H-pyrazol-4-yl]-amide] | 5.2 nM
CNC(=O)c1c(NC(=O)c2nc(Cl)ccc2Nc2cncnc2)cnn1C [Example 166, 6-Chloro-3-(pyrimidin-5-ylamino)-pyridine-2-carboxylic acid (1-methyl-5-methylcarbamoyl-1H-pyrazol-4-yl)-amide] | 335 nM
Cn1ncc(NC(=O)c2nc(C3CC3)cnc2Nc2cncnc2)c1C(=O)N1CCCCC1 [Example 168, 6-Cyclopropyl-3-(pyrimidin-5-ylamino)-pyrazine-2-carboxylic acid [1-methyl-5-(piperidine-1-carbonyl)-1H-pyrazol-4-yl]-amide] | 32.9 nM
CCn1ncc(NC(=O)c2nc(C3CC3)cnc2Nc2cncnc2)c1C(=O)N(C)C [Example 169, 6-Cyclopropyl-3-(pyrimidin-5-ylamino)-pyrazine-2-carboxylic acid (5-dimethylcarbamoyl-1-ethyl-1H-pyrazol-4-yl)-amide] | 22.3 nM
CCn1ncc(NC(=O)c2nc(C3CC3)cnc2Nc2cncnc2)c1C(=O)N1CCOCC1 [Example 170, 6-Cyclopropyl-3-(pyrimidin-5-ylamino)-pyrazine-2-carboxylic acid [1-ethyl-5-(morpholine-4-carbonyl)-1H-pyrazol-4-yl]-amide] | 88.9 nM
Cn1ncc(NC(=O)c2nc(C3CC3)cnc2Nc2cncnc2)c1C(=O)NCCF [Example 171, 6-Cyclopropyl-3-(pyrimidin-5-ylamino)-pyrazine-2-carboxylic acid [5-(2-fluoro-ethylcarbamoyl)-1-methyl-1H-pyrazol-4-yl]-amide] | 2.8 nM
CC(C)(O)CNC(=O)c1c(NC(=O)c2nc(C3CC3)cnc2Nc2cncnc2)cnn1CCC(F)(F)F [Example 172, 6-Cyclopropyl-3-(pyrimidin-5-ylamino)-pyrazine-2-carboxylic acid [5-(2-hydroxy-2-methyl-propylcarbamoyl)-1-(3,3,3-trifluoro-propyl)-1H-pyrazol-4-yl]-amide] | 12.9 nM
CC(C)(O)CNC(=O)c1c(NC(=O)c2nc(C3CC3)cnc2Nc2cncnc2)cnn1CC(F)(F)F [Example 175, 6-Cyclopropyl-3-(pyrimidin-5-ylamino)-pyrazine-2-carboxylic acid [5-(2-hydroxy-2-methyl-propylcarbamoyl)-1-(2,2,2-trifluoro-ethyl)-1H-pyrazol-4-yl]-amide] | 25 nM
CC(C)(O)CNC(=O)c1nc(C2CCCO2)ccc1NC(=O)c1nc(C2CC2)cnc1Nc1cncnc1 (stereo not shown) [Example 178, 6-Cyclopropyl-3-(pyrimidin-5-ylamino)-pyrazine-2-carboxylic acid [2-(2-hydroxy-2-methyl-propylcarbamoyl)-6-(tetrahydro-furan-2-yl)-pyridin-3-yl]-amide] | 0.1 nM
CCc1ccc(NC(=O)c2nc(C3CC3)cnc2Nc2cncnc2)c(C(=O)NCC(C)(C)O)n1 [Example 181, 6-Cyclopropyl-3-(pyrimidin-5-ylamino)-pyrazine-2-carboxylic acid [6-ethyl-2-(2-hydroxy-2-methyl-propylcarbamoyl)-pyridin-3-yl]-amide] | 0.4 nM
CNC(=O)c1nc(C)ccc1NC(=O)c1nc(C2CC2)cnc1Nc1cncnc1 [Example 182, 6-Cyclopropyl-3-(pyrimidin-5-ylamino)-pyrazine-2-carboxylic acid (6-methyl-2-methylcarbamoyl-pyridin-3-yl)-amide] | 3.5 nM
CCNC(=O)c1c(NC(=O)c2nc(C3CC3)cnc2Nc2cncnc2)sc2c1CCCC2 [Example 185, 6-Cyclopropyl-3-(pyrimidin-5-ylamino)-pyrazine-2-carboxylic acid (3-ethylcarbamoyl-4,5,6,7-tetrahydro-benzo[b]thiophen-2-yl)-amide] | 2690 nM
CNC(=O)c1c(NC(=O)c2nc(C(C)O)cnc2Nc2cncnc2)cnn1C (stereo not shown) [Example 187, 6-(1-Hydroxy-ethyl)-3-(pyrimidin-5-ylamino)-pyrazine-2-carboxylic acid (1-methyl-5-methylcarbamoyl-1H-pyrazol-4-yl)-amide] | 63.8 nM

Continued, values first:

IC50 | SMILES
12.7 nM | Cn1ncc(NC(=O)c2nc(C3CC3)cnc2Nc2cncnc2)c1C(=O)N1CCC1 [Example 155, 6-Cyclopropyl-3-(pyrimidin-5-ylamino)-pyrazine-2-carboxylic acid [5-(azetidine-1-carbonyl)-1-methyl-1H-pyrazol-4-yl]-amide]
11.2 nM | Cn1ncc(NC(=O)c2nc(C3CC3)cnc2Nc2cncnc2)c1C(=O)N1CCCC1 [Example 156, 6-Cyclopropyl-3-(pyrimidin-5-ylamino)-pyrazine-2-carboxylic acid [1-methyl-5-(pyrrolidine-1-carbonyl)-1H-pyrazol-4-yl]-amide]
0.8 nM | CNC(=O)c1nc(C2CC2)ccc1NC(=O)c1nc(C2CC2)cnc1Nc1cncnc1 [Example 158, 6-Cyclopropyl-3-(pyrimidin-5-ylamino)-pyrazine-2-carboxylic acid (6-cyclopropyl-2-methylcarbamoyl-pyridin-3-yl)-amide]
2.2 nM | Cn1ncc(NC(=O)c2nc(C3CC3)cnc2Nc2cncnc2)c1C(=O)NCC(C)(F)F [Example 165, 6-Cyclopropyl-3-(pyrimidin-5-ylamino)-pyrazine-2-carboxylic acid [5-(2,2-difluoro-propylcarbamoyl)-1-methyl-1H-pyrazol-4-yl]-amide]
4.4 nM | CC(C)CNC(=O)c1c(NC(=O)c2nc(C3CC3)cnc2Nc2cncnc2)cnn1C [Example 167, 6-Cyclopropyl-3-(pyrimidin-5-ylamino)-pyrazine-2-carboxylic acid (5-isobutylcarbamoyl-1-methyl-1H-pyrazol-4-yl)-amide]
19.5 nM | CNC(=O)c1c(NC(=O)c2nc(C3CC3)cnc2Nc2cncnc2)cnn1CCC(F)(F)F [Example 173, 6-Cyclopropyl-3-(pyrimidin-5-ylamino)-pyrazine-2-carboxylic acid [5-methylcarbamoyl-1-(3,3,3-trifluoro-propyl)-1H-pyrazol-4-yl]-amide]
14.8 nM | Cn1ncc(NC(=O)c2nc(C3CC3)cnc2Nc2cncnc2)c1C(=O)N1CC(F)C1 [Example 174, 6-Cyclopropyl-3-(pyrimidin-5-ylamino)-pyrazine-2-carboxylic acid [5-(3-fluoro-azetidine-1-carbonyl)-1-methyl-1H-pyrazol-4-yl]-amide]
0.2 nM | CNC(=O)c1nc(C2CCCO2)ccc1NC(=O)c1nc(C2CC2)cnc1Nc1cncnc1 (stereo not shown) [Example 177, 6-Cyclopropyl-3-(pyrimidin-5-ylamino)-pyrazine-2-carboxylic acid [2-methylcarbamoyl-6-(tetrahydro-furan-2-yl)-pyridin-3-yl]-amide]
148 nM | Cn1ncc(NC(=O)c2nc(C3CC3)cnc2Nc2cncnc2)c1C(=O)N1CCOCC1 [Example 179, 6-Cyclopropyl-3-(pyrimidin-5-ylamino)-pyrazine-2-carboxylic acid [1-methyl-5-(morpholine-4-carbonyl)-1H-pyrazol-4-yl]-amide]
5.5 nM | CCc1ccc(NC(=O)c2nc(C3CC3)cnc2Nc2cncnc2)c(C(=O)NC)n1 [Example 180, 6-Cyclopropyl-3-(pyrimidin-5-ylamino)-pyrazine-2-carboxylic acid (6-ethyl-2-methylcarbamoyl-pyridin-3-yl)-amide]
0.3 nM | Cc1ccc(NC(=O)c2nc(C3CC3)cnc2Nc2cncnc2)c(C(=O)NCC(C)(C)O)n1 [Example 183, 6-Cyclopropyl-3-(pyrimidin-5-ylamino)-pyrazine-2-carboxylic acid [2-(2-hydroxy-2-methyl-propylcarbamoyl)-6-methyl-pyridin-3-yl]-amide]
162 nM | CNC(=O)c1c(NC(=O)c2nc(C(C)=O)cnc2Nc2cncnc2)cnn1C [Example 184, 6-Acetyl-3-(pyrimidin-5-ylamino)-pyrazine-2-carboxylic acid (1-methyl-5-methylcarbamoyl-1H-pyrazol-4-yl)-amide]
8.2 nM | CNC(=O)c1c(NC(=O)c2nc(C(C)C)ncc2Nc2cccnc2)cnn1C [Example 186, 2-Isopropyl-5-(pyridin-3-ylamino)-pyrimidine-4-carboxylic acid (1-methyl-5-methylcarbamoyl-1H-pyrazol-4-yl)-amide]
51.7 nM | CNC(=O)c1c(NC(=O)c2nc(C(C)C)ncc2Nc2cccc(F)c2)cnn1C [Example 188, 5-(3-Fluoro-phenylamino)-2-isopropyl-pyrimidine-4-carboxylic acid (1-methyl-5-methylcarbamoyl-1H-pyrazol-4-yl)-amide]
